# Columns and labels:
# K2P channels = test system: K2P channels; set-up: method as in PMID 9628867, PMID 8605869; conditions: ref [26], [27]; cited from earlier work
# TRAAK = target: T1, TRAAK (Homo sapiens, UniProt Q9NYG8); assay: Whole-cell voltage clamp of CHO cells expressing TRAAK; assay type: cell-based; conditions: for IC50: whole-cell, CHO cells, WT TRAAK, mean ± s.e.m
# T1 construct: expressed in transfected cells; host or cells: CHO cells, transient transfection
# T1 sequence (Q9NYG8 1-393): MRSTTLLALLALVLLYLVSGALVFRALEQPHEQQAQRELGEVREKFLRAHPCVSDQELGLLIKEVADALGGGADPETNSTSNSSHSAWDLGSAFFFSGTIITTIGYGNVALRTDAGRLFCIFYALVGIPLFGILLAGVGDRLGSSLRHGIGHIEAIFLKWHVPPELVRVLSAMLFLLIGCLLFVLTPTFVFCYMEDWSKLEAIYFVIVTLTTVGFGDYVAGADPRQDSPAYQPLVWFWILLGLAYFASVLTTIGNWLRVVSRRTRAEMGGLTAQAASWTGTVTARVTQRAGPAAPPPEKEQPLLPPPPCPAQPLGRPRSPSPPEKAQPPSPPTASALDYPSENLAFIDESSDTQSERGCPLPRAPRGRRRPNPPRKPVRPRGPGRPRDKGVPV
# Text: (§1) cDNA of the human TREK-1, TREK-2 and TRAAK channels were subcloned into the pEGFPN1 expression vector (Invitrogen), respectively. Mutations were introduced into TREK-1 or TRAAK by PCR using the QuickChange XL sitedirected mutagenesis kit (Agilent Technologies) and were subsequently confirmed by DNA sequencing.
# (§2) Chinese hamster ovary (CHO) cells were provided by the Cell Bank of Chinese Academy of Sciences (Shanghai, China). CHO cells were maintained in DMEM/F12 (Gibco) supplemented with 10% fetal bovine serum (Gibco) and 100 μg ml^−1 penicillin-streptomycin (Cellgro) in a humidified incubator at 37 °C (5% CO2). For electrophysiology experiments, cells plated in 35 mm tissue culture dishes (Corning Incorporated) were transiently transfected with the plasmids using PolyJet™ reagent (SignaGen) according to the manufacturer’s instructions. Primers used in this study are listed in Supplementary Table 4.
# (§3) All electrophysiological recordings were obtained using patch-clamp recordings in two different configurations: (1) whole cell for macroscopic current dose–response curves; and (2) outside-out and inside-out for macroscopic currents recordings.
# (§4) All patch-clamp recordings were conducted 36–96 h after transfection with an Axopatch-200B amplifier (Molecular Devices) at room temperature (23–25 °C). The microelectrodes fashioned from 1.5 mm thin-walled borosilicate glass with filament were pulled from Flaming/Brown type micropipette puller (P-97; SUTTER INSTRUMENT) with the resistances of 3–7 MΩ (whole cell) or 7–15 MΩ (outside-out) when filled with a solution containing (in mM): 140 KCl, 2 MgCl2, 10 EGTA, 1 CaCl2, 10 HEPES (pH 7.3, adjusted with KOH). External solution contained (in mM): 150 NaCl, 5 KCl, 0.5 CaCl2, 1.2 MgCl2, 10 HEPES (pH 7.3, adjusted with NaOH). The current signals were filtered at 1 kHz and digitized at a 10 kHz sampling frequency by using DigiData 1440 A.
# (§5) Data of whole-cell voltage clamp experiments were fitted using doseResp function. The half inhibition concentrations were derived from fits of the dose–response curves to the function:1 I/I0=A1+A2-A1/1+10^logx0-xP, where I 0 and I are current amplitudes before and after application of inhibitors; A 1 and A 2 are constants between 0 and 1; x is the concentration of inhibitor; x o is the concentration when 50% inhibition was reached (IC50), P is the Hill constant.
# TREK-2 [1] = target: T2, TREK-2 (Homo sapiens, UniProt P57789); assay: Whole-cell voltage clamp of CHO cells expressing TREK-2; assay type: cell-based; conditions: mean ± s.e.m
# T2 construct: expressed in transfected cells; host or cells: CHO cells, transient transfection
# T2 sequence (P57789 1-538): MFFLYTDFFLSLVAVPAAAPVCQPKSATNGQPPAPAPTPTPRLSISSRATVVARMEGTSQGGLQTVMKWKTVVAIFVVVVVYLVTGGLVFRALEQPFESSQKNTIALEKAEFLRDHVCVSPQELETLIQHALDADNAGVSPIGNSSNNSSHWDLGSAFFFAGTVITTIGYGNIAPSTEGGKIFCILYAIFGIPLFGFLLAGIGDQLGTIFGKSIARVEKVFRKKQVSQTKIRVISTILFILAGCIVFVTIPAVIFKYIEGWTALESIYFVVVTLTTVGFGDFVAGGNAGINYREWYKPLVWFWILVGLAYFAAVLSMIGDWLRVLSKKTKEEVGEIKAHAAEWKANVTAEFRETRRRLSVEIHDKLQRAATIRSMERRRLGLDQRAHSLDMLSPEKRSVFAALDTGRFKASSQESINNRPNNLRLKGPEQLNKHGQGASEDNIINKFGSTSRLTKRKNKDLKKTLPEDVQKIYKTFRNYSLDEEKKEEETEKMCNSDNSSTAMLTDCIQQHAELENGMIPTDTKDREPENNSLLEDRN
# Text: as §1, §2, §3, §4, §5
# TREK-1 channel = target: T3, TREK-1 channel (Homo sapiens, UniProt O95069); assay: Whole-cell voltage clamp of CHO cells transiently transfected with TREK-1; assay type: cell-based; conditions: whole-cell, CHO cells, WT TREK-1, mean ± s.e.m; for IC50: read-out: half-maximal inhibition concentration (IC50), TREK-1
# T3 construct: expressed in transfected cells; host or cells: CHO cells, transient transfection
# T3 sequence (O95069 1-411 isoform O95069-2): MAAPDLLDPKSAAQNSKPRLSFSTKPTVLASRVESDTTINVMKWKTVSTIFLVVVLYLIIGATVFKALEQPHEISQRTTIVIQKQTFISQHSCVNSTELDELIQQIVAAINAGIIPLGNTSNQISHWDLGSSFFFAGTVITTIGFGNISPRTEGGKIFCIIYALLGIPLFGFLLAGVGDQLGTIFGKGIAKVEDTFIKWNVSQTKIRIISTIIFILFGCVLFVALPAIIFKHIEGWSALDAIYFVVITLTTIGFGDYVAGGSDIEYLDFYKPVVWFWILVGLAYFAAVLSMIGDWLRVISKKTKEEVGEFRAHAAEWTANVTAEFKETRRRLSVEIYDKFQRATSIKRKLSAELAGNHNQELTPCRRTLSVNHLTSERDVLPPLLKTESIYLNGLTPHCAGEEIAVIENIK
# Text: as §1, §2, §3, §4, §5
# mice = assay: Forced swimming test; assay type: in vivo, Male C57BL/6 mice; conditions: chronic i.p. administration 10 days; TKDC 0.5, 1, 5 mg kg-1; fluoxetine 10 mg kg-1; vs vehicle
# Description: Male C57BL/6 mice, aged 8 weeks (weighing 18–20 g) were used for acute and chronic drug administration and behavioral tests. The mice were housed four per cage under a 12-h light–dark cycle. Mice were raised under stable conditions with food and water ad libitum. All animal studies and experimental procedures were approved by the Animal Care Committees of the Shanghai Institute of Materia Medica, Chinese Academy of Sciences, and experiments were carried out in accordance with EU Directive 2010/63/EU on the protection of animals used for scientific purposes. […] The mice were removed to a sound-attenuating testing room 3–4 h before testing. The behavioral tests were carried out 30 min and 24 h after acute and chronic drugs administration, respectively.
# The mice were performed under normal light. The apparatus was a transparent Plexiglas cylinder with 30 cm height × 10 cm diameter and the water temperature at 23–25 °C were set to prevent mice from touching the bottom with their limbs. Mice were allowed to swim for 8 min, and their activity was videotaped. There was an extra 15-min swimming in the previous day. The duration of immobility defined as floating or remaining motionless was assessed. To avoid extremely active at the beginning of swimming, the first 2 min of swimming was also excluded as the tail suspension test. […]
# TREK channels = conditions: ref [7], [16]; cited from earlier work
# I110D TREK-1 mutant = test system: I110D TREK-1 mutant; set-up: method as in PMID 25409575; conditions: ref [22]; cited from earlier work
# TREK-1 [2] = test system: TREK-1; set-up: method as in Braun et al. [22]; conditions: ref Braun et al. [22]; cited from earlier work
# TASK-3 = test system: TASK-3; set-up: method as in PMID 25409575, PMID 18417474, PMID 12606773, PMID 16513667; conditions: binds E70; ref [22]-[25]; cited from earlier work
# TREK-2 [3] = test system: TREK-2; set-up: method as in PMID 25409575, PMID 18417474, PMID 12606773, PMID 16513667; conditions: binds D135; ref [22]-[25]; cited from earlier work
# TREK-1 [4] = test system: TREK-1; set-up: method as in earlier work; conditions: ref [2] Borsotto M, et al. (2015); cited from earlier work
molecule,measurement,setting,value
Nc1ccncc1 [4-aminopyridine],sensitivity of K2P channels to classical potassium channel pore blockers,K2P channels,insensitivity
"O=C(CNc1ccc(Cl)cc1)N1CCc2ccccc2C1 [28NH, 2-((4-chlorophenyl)amino)-1-(3,4-dihydroisoquinolin-2(1H)-yl)ethanone]",IC50 for TRAAK relative to the value obtained with TKDC,TRAAK; 28NH vs TKDC,almost sevenfold lower
same,IC50,TRAAK,11.8 ± 2.1 µM
same,"IC50, TREK-2",TREK-2 [1],comparable to those observed for TKDC-induced inhibitions
same,"half-maximal inhibition concentration (IC50), TREK-1",TREK-1 channel,comparable to those observed for TKDC-induced inhibitions
COc1ccccc1C(=O)Nc1cc(C(C)C)ccc1O [TKN1],IC50,TRAAK,15.7 ± 3.1 µM
same,IC50,TREK-2 [1],4.4 ± 1 µM
same,IC50,TREK-1 channel,6.5 ± 1.7 µM
Cc1cc(NC(=O)c2cccs2)cc(-c2nc3ccccc3o2)c1O [TKN2],IC50,TRAAK,10.3 ± 1.5 µM
same,IC50,TREK-2 [1],1.7 ± 0.8 µM
same,IC50,TREK-1 channel,3.8 ± 0.6 µM
[Cs+] [cesium ion],sensitivity of K2P channels to classical potassium channel pore blockers,K2P channels,insensitivity
"CNCCC(Oc1ccc(C(F)(F)F)cc1)c1ccccc1 (centres unmarked) [fluoxetine, reference compound]",immobility in the forced swimming test,mice,did not show antidepressant effects
same,effect on TREK channels,TREK channels,can also inhibit TREK channels
N.N.N.N.N.N.N.N.N.N.N.N.N.N.[Cl-].[Cl-].[Cl-].[Cl-].[Cl-].[Cl-].[O-2].[O-2].[Ru+3].[Ru+3].[Ru+4] [ruthenium red],effect on I110D TREK-1 mutant,I110D TREK-1 mutant,inhibits
same,sensitivity of TREK-1,TREK-1 [2],not sensitive
same,effect on TASK-3,TASK-3,inhibit
same,effect on TREK-2,TREK-2 [3],inhibit
CC[N+](CC)(CC)CC [tetraethylammonium],sensitivity of K2P channels to classical potassium channel pore blockers,K2P channels,insensitivity
spadin,effect on TREK-1,TREK-1 [4],specifically blocks the TREK-1

# Reference: PMC5575254, “An allosteric ligand-binding site in the extracellular cap of K2P channels” (Nature Communications, 2017)
